# Test results as given in ChEMBL document CHEMBL1201862, “PubChem BioAssay data set” (2004).
#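 Values below derive from 48-hour exposures of cells grown in 96-well plates, with endpoints linearly interpolated between the two concentrations bracketing the appropriate inhibition level. Here, GI50 denotes the concentration required for 50% inhibition of growth.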 The source made the active and inactive calls. Rule as the data show it: active = GI50 up to about 1.1 µM and inactive = higher.
# How the values were obtained:
# Assay in all cases: DTP human tumour cell line panel, 48 h
# 786-0 = system: 786-0
# A498 = system: A498
# A549 = system: A549
# ACHN = system: ACHN
# BT-549 = system: BT-549
# CCRF-CEM = system: CCRF-CEM
# COLO 205 = system: COLO 205
# DU-145 = system: DU-145
# EKVX = system: EKVX
# HCC 2998 = system: HCC 2998
# HCT-116 = system: HCT-116
# HCT-15 = system: HCT-15
# HL-60 = system: HL-60
# HOP-62 = system: HOP-62
# HOP-92 = system: HOP-92
# HT-29 = system: HT-29
# Hs-578T = system: Hs-578T
# IGROV-1 = system: IGROV-1
# K562 = system: K562
# KM12 = system: KM12
# LOX IMVI = system: LOX IMVI
# M14 = system: M14
# MCF7 = system: MCF7
# MDA-MB-231 = system: MDA-MB-231
# MDA-MB-435 = system: MDA-MB-435
# MOLT-4 = system: MOLT-4
# Malme-3M = system: Malme-3M
# NCI-H226 = system: NCI-H226
# NCI-H23 = system: NCI-H23
# NCI-H460 = system: NCI-H460
# NCI-H522 = system: NCI-H522
# NCI/ADR-RES = system: NCI/ADR-RES
# OVCAR-3 = system: OVCAR-3
# OVCAR-4 = system: OVCAR-4
# OVCAR-8 = system: OVCAR-8
# PC-3 = system: PC-3
# RPMI-8226 = system: RPMI-8226
# RXF 393 = system: RXF 393
# SF-268 = system: SF-268
# SF-295 = system: SF-295
# SF-539 = system: SF-539
# SK-MEL-28 = system: SK-MEL-28
# SK-OV-3 = system: SK-OV-3
# SN12C = system: SN12C
# SNB-75 = system: SNB-75
# SR = system: SR
# SW-620 = system: SW-620
# T47D = system: T47D
# TK-10 = system: TK-10
# U-251 = system: U-251
# UACC-257 = system: UACC-257
# UACC-62 = system: UACC-62
# UO-31 = system: UO-31
# CAKI-1 = system: CAKI-1
# OVCAR-5 = system: OVCAR-5
# SK-MEL-2 = system: SK-MEL-2
# SK-MEL-5 = system: SK-MEL-5
# SNB-19 = system: SNB-19
smiles,measurement,setting,value
[N-]=[N+]=Nc1cccc(-c2nnc(Cl)cc2O)c1,GI50,786-0,> 100 µM (inactive)
same,GI50,A498,> 100 µM (inactive)
same,GI50,A549,> 100 µM (inactive)
same,GI50,ACHN,> 100 µM (inactive)
same,GI50,BT-549,> 100 µM (inactive)
same,GI50,CCRF-CEM,> 100 µM (inactive)
same,GI50,COLO 205,> 100 µM (inactive)
same,GI50,DU-145,> 100 µM (inactive)
same,GI50,EKVX,> 100 µM (inactive)
same,GI50,HCC 2998,> 100 µM (inactive)
same,GI50,HCT-116,> 100 µM (inactive)
same,GI50,HCT-15,> 100 µM
same,GI50,HL-60,> 100 µM (inactive)
same,GI50,HOP-62,> 100 µM (inactive)
same,GI50,HOP-92,> 100 µM (inactive)
same,GI50,HT-29,> 100 µM (inactive)
same,GI50,Hs-578T,> 100 µM (inactive)
same,GI50,IGROV-1,> 100 µM (inactive)
same,GI50,K562,> 100 µM (inactive)
same,GI50,KM12,> 100 µM (inactive)
same,GI50,LOX IMVI,> 100 µM (inactive)
same,GI50,M14,> 100 µM (inactive)
same,GI50,MCF7,> 100 µM (inactive)
same,GI50,MDA-MB-231,> 100 µM (inactive)
same,GI50,MDA-MB-435,> 100 µM (inactive)
same,GI50,MOLT-4,> 100 µM (inactive)
same,GI50,Malme-3M,> 100 µM (inactive)
same,GI50,NCI-H226,> 100 µM (inactive)
same,GI50,NCI-H23,> 100 µM (inactive)
same,GI50,NCI-H460,> 100 µM (inactive)
same,GI50,NCI-H522,> 100 µM (inactive)
same,GI50,NCI/ADR-RES,> 100 µM (inactive)
same,GI50,OVCAR-3,> 100 µM (inactive)
same,GI50,OVCAR-4,> 100 µM (inactive)
same,GI50,OVCAR-8,> 100 µM (inactive)
same,GI50,PC-3,> 100 µM (inactive)
same,GI50,RPMI-8226,> 100 µM (inactive)
same,GI50,RXF 393,> 100 µM (inactive)
same,GI50,SF-268,> 100 µM (inactive)
same,GI50,SF-295,> 100 µM (inactive)
same,GI50,SF-539,> 100 µM (inactive)
same,GI50,SK-MEL-28,> 100 µM (inactive)
same,GI50,SK-OV-3,> 100 µM (inactive)
same,GI50,SN12C,> 100 µM (inactive)
same,GI50,SNB-75,89.7 µM (inactive)
same,GI50,SR,> 100 µM (inactive)
same,GI50,SW-620,> 100 µM (inactive)
same,GI50,T47D,> 100 µM (inactive)
same,GI50,TK-10,> 100 µM (inactive)
same,GI50,U-251,> 100 µM (inactive)
same,GI50,UACC-257,> 100 µM (inactive)
same,GI50,UACC-62,> 100 µM (inactive)
same,GI50,UO-31,> 10 µM (inactive)
COc1cc2c(cc1C)NC(=O)/C2=C/c1cccnc1,GI50,786-0,16 µM (inactive)
same,GI50,A498,10.8 µM (inactive)
same,GI50,ACHN,11.9 µM (inactive)
same,GI50,BT-549,22.6 µM (inactive)
same,GI50,CAKI-1,10.1 µM (inactive)
same,GI50,CCRF-CEM,7.01 µM (inactive)
same,GI50,COLO 205,15.6 µM (inactive)
same,GI50,DU-145,12.3 µM (inactive)
same,GI50,EKVX,18.3 µM (inactive)
same,GI50,HCC 2998,2.34 µM (inactive)
same,GI50,HCT-116,12.5 µM (inactive)
same,GI50,HCT-15,11 µM
same,GI50,HL-60,4.04 µM (inactive)
same,GI50,HOP-62,11.7 µM (inactive)
same,GI50,HOP-92,15.3 µM (inactive)
same,GI50,HT-29,17.7 µM (inactive)
same,GI50,Hs-578T,27.4 µM (inactive)
same,GI50,K562,5.31 µM (inactive)
same,GI50,KM12,8.32 µM (inactive)
same,GI50,M14,14 µM (inactive)
same,GI50,MCF7,5.74 µM (inactive)
same,GI50,MDA-MB-435,12.9 µM (inactive)
same,GI50,MOLT-4,1.23 µM (inactive)
same,GI50,Malme-3M,16.4 µM (inactive)
same,GI50,NCI-H23,9.86 µM (inactive)
same,GI50,NCI-H460,9.02 µM (inactive)
same,GI50,NCI-H522,13 µM (inactive)
same,GI50,NCI/ADR-RES,12.1 µM (inactive)
same,GI50,OVCAR-3,12.3 µM (inactive)
same,GI50,OVCAR-4,26.1 µM (inactive)
same,GI50,OVCAR-5,13.6 µM (inactive)
same,GI50,OVCAR-8,14.6 µM (inactive)
same,GI50,PC-3,17.9 µM (inactive)
same,GI50,RXF 393,7.8 µM (inactive)
same,GI50,SF-268,15.6 µM (inactive)
same,GI50,SF-295,12.5 µM (inactive)
same,GI50,SF-539,26.9 µM (inactive)
same,GI50,SK-MEL-28,45.9 µM (inactive)
same,GI50,SK-MEL-2,16 µM (inactive)
same,GI50,SK-MEL-5,11 µM (inactive)
same,GI50,SK-OV-3,7.03 µM (inactive)
same,GI50,SNB-19,11.7 µM (inactive)
same,GI50,SNB-75,45 µM (inactive)
same,GI50,SW-620,20.8 µM (inactive)
same,GI50,T47D,2.84 µM (inactive)
same,GI50,TK-10,11.9 µM (inactive)
same,GI50,U-251,9.55 µM (inactive)
